Results reported in article PMC9533837 (Antiviral Research, 2003).
≈ marks a conversion by molar mass, not a printed value. Entries after “also recorded” stand apart in the source; their conditions may differ. Where two headings read alike, the source gives them in different places.

Experiments:
[1] = system: orthopoxviruses (VAR-BSH, VAR-YAM, VAR-GAR, MPX, CPX, VAC); test: organism not typed; format: cell-based
[2] = system: VAR-BSH (1975 Bangladesh isolate of VAR major); test: organism not typed; format: cell-based, variola major; settings: for IC50: Vero, read-out: IC50 VAR-BSH Vero
[3] = system: VAR-BSH (1975 Bangladesh isolate of VAR major); test: organism not typed; format: cell-based, variola major; settings: for IC50: LLC-MK2, read-out: IC50 VAR-BSH LLC-MK2
[4] = system: VAR-YAM (1946 Japan Yamada isolate of VAR major); test: organism not typed; format: cell-based, variola major; settings: for IC50: Vero, read-out: IC50 VAR-YAM Vero
[5] = system: VAR-YAM (1946 Japan Yamada isolate of VAR major); test: organism not typed; format: cell-based, variola major; settings: for IC50: LLC-MK2, read-out: IC50 VAR-YAM LLC-MK2
[6] = system: VAR-GAR (1966 Brazil Garcia isolate of VAR minor); test: organism not typed; format: cell-based, variola minor; settings: for IC50: Vero, read-out: IC50 VAR-GAR Vero
[7] = system: VAR-GAR (1966 Brazil Garcia isolate of VAR minor); test: organism not typed; format: cell-based, variola minor; settings: for IC50: LLC-MK2, read-out: IC50 VAR-GAR LLC-MK2
[8] = system: MPX Zaire (V79-1-005-Scab); test: organism not typed; format: cell-based, monkeypox; settings: for IC50: Vero, read-out: IC50 MPX Vero
[9] = system: MPX Zaire (V79-1-005-Scab); test: organism not typed; format: cell-based, monkeypox; settings: for IC50: LLC-MK2, read-out: IC50 MPX LLC-MK2
[10] = system: CPX Brighton; test: organism not typed; format: cell-based, cowpox; settings: for IC50: Vero, read-out: IC50 CPX Vero
[11] = system: CPX Brighton; test: organism not typed; format: cell-based, cowpox; settings: for IC50: LLC-MK2, read-out: IC50 CPX LLC-MK2
[12] = system: VAC Copenhagen; test: microbe, parasite or virus in culture; format: cell-based, vaccinia virus; settings: for IC50: Orthopoxvirus vaccinia, Vero, read-out: IC50 VAC Vero
[13] = system: VAC Copenhagen; test: microbe, parasite or virus in culture; format: cell-based, vaccinia virus; settings: for IC50: Orthopoxvirus vaccinia, LLC-MK2, read-out: IC50 VAC LLC-MK2
[14] = system: Vero cells
[15] = system: LLC-MK2 cells
[16] = system: VAC; settings: cited from earlier work

Nc1ncnc2c1ncn2CCOCP(=O)(O)O [PMEA, 9-[2-(phosphonomethoxy)ethyl]adenine]
inhibitory activity against the orthopoxviruses tested (in words) [1]: Neither PMEA nor bis-POM-PMEA was effective

NC(=O)c1csc([C@@H]2O[C@H](CO)[C@@H](O)[C@H]2O)n1 [Tiazofurin, 2-β-D-ribofuranosylthiazole-4-carboxamide]
Therapeutic index (TI) VAR-BSH Vero [2]: 4.0
IC50 [2]: 22.6 µg/mL (≈ 86.8 µM)
Therapeutic index (TI) VAR-BSH LLC-MK2 [3]: 18.2
IC50 [3]: 5.5 µg/mL (≈ 21.1 µM)
Therapeutic index (TI) VAR-YAM Vero [4]: 4.2
IC50 [4]: 21.4 µg/mL (≈ 82.2 µM)
Therapeutic index (TI) VAR-YAM LLC-MK2 [5]: 25.6
IC50 [5]: 3.9 µg/mL (≈ 15 µM)
Therapeutic index (TI) VAR-GAR Vero [6]: 4.5
IC50 [6]: 19.8 µg/mL (≈ 76.1 µM)
Therapeutic index (TI) VAR-GAR LLC-MK2 [7]: 16.4
IC50 [7]: 6.1 µg/mL (≈ 23.4 µM)
Therapeutic index (TI) MPX Vero [8]: 4.5
IC50 [8]: 20 µg/mL (≈ 76.8 µM)
Therapeutic index (TI) MPX LLC-MK2 [9]: 19.2
IC50 [9]: 5.2 µg/mL (≈ 20 µM)
Therapeutic index (TI) CPX Vero [10]: 2.6
IC50 [10]: 34.6 µg/mL (≈ 133 µM)
Therapeutic index (TI) CPX LLC-MK2 [11]: 9.1
IC50 [11]: 11 µg/mL (≈ 42.3 µM)
Therapeutic index (TI) VAC Vero [12]: 1.0
IC50 [12]: > 100 µg/mL
Therapeutic index (TI) VAC LLC-MK2 [13]: 3.0
IC50 [13]: 33.3 µg/mL (≈ 128 µM)
IC50 ([1]; LLC-MK2, read-out: mean IC50 on LLC-MK2 cells): 10.8 ± 4.6 µg/mL (≈ 41.5 µM)
IC50 ([1]; Vero, read-out: mean IC50 on Vero cells): 36.4 ± 12.9 µg/mL (≈ 140 µM)
Cytotoxicity TC50 Vero ([14]; African green monkey): 90.0 µg/mL
Cytotoxicity TC50 LLC-MK2 ([15]; rhesus monkey): >100 µg/mL

Nc1nc(=O)c2ncn([C@@H]3C[C@H](CO)[C@H]3CO)c2[nH]1 [lobucavir, [1R(1α,2β,3α)]-9-[2,3-bis(hydroxymethyl)cyclobutyl]guanine]
inhibitory activity against the orthopoxviruses tested (in words) [1]: No other test compounds of this group (acyclovir, brovavir, lobucavir, didanosine, ddC, or d4C) showed any activity; also recorded: failed to inhibit orthopoxvirus replication

O=c1[nH]c(=O)n([C@@H]2O[C@H](CO)[C@@H](O)[C@@H]2O)cc1/C=C/Br [brovavir, Brovavir]
inhibitory activity against the orthopoxviruses tested (in words) [1]: No other test compounds of this group (acyclovir, brovavir, lobucavir, didanosine, ddC, or d4C) showed any activity; also recorded: failed to inhibit orthopoxvirus replication

CN1C(=O)/C(=N\NC(N)=S)c2ccccc21 [Methisazone, methisazone]
Therapeutic index (TI) VAR-BSH Vero [2]: 3.0
IC50 [2]: 34.6 µg/mL (≈ 148 µM)
Therapeutic index (TI) VAR-BSH LLC-MK2 [3]: 2.4
IC50 [3]: 41.2 µg/mL (≈ 176 µM)
Therapeutic index (TI) VAR-YAM Vero [4]: 2.6
IC50 [4]: 39 µg/mL (≈ 166 µM)
Therapeutic index (TI) VAR-YAM LLC-MK2 [5]: 2.3
IC50 [5]: 43.3 µg/mL (≈ 185 µM)
Therapeutic index (TI) VAR-GAR Vero [6]: 4.6
IC50 [6]: 21.6 µg/mL (≈ 92.2 µM)
Therapeutic index (TI) VAR-GAR LLC-MK2 [7]: 2.3
IC50 [7]: 44.1 µg/mL (≈ 188 µM)
Therapeutic index (TI) MPX Vero [8]: 1.5
IC50 [8]: 66.2 µg/mL (≈ 283 µM)
Therapeutic index (TI) MPX LLC-MK2 [9]: 1.2
IC50 [9]: 80.4 µg/mL (≈ 343 µM)
Therapeutic index (TI) CPX Vero [10]: 2.0
IC50 [10]: 49.2 µg/mL (≈ 210 µM)
Therapeutic index (TI) CPX LLC-MK2 [11]: 2.2
IC50 [11]: 45.2 µg/mL (≈ 193 µM)
Therapeutic index (TI) VAC Vero [12]: 2.2
IC50 [12]: 45.8 µg/mL (≈ 195 µM)
Therapeutic index (TI) VAC LLC-MK2 [13]: 1.9
IC50 [13]: 52 µg/mL (≈ 222 µM)
Cytotoxicity TC50 Vero ([14]; African green monkey): >100 µg/mL
Cytotoxicity TC50 LLC-MK2 ([15]; rhesus monkey): >100 µg/mL

Nc1ccn([C@H]2CC[C@@H](CO)O2)c(=O)n1 [ddC, zalcitabine]
inhibitory activity against the orthopoxviruses tested (in words) [1]: No other test compounds of this group (acyclovir, brovavir, lobucavir, didanosine, ddC, or d4C) showed any activity

CC(C)c1nc(CN(C)C(=O)N[C@H](C(=O)N[C@@H](Cc2ccccc2)C[C@H](O)[C@H](Cc2ccccc2)NC(=O)OCc2cncs2)C(C)C)cs1 [ritonavir, Ritonavir]
inhibitory activity against the orthopoxviruses tested (in words) [1]: inactive

CC(C)(C)NC(=O)[C@@H]1C[C@@H]2CCCC[C@@H]2CN1C[C@@H](O)[C@H](Cc1ccccc1)NC(=O)[C@H](CC(N)=O)NC(=O)c1ccc2ccccc2n1 [saquinavir, Saquinavir]
inhibitory activity against the orthopoxviruses tested (in words) [1]: inactive

Nc1nc2c(ncn2COCCO)c(=O)[nH]1 [acyclovir, Acyclovir]
inhibitory activity against the orthopoxviruses tested (in words) [1]: No other test compounds of this group (acyclovir, brovavir, lobucavir, didanosine, ddC, or d4C) showed any activity; also recorded: failed to inhibit orthopoxvirus replication

O=c1[nH]cnc2c1ncn2[C@H]1CC[C@@H](CO)O1 [didanosine]
inhibitory activity against the orthopoxviruses tested (in words) [1]: No other test compounds of this group (acyclovir, brovavir, lobucavir, didanosine, ddC, or d4C) showed any activity

Cc1c(O)cccc1C(=O)N[C@@H](CSc1ccccc1)[C@H](O)CN1C[C@H]2CCCC[C@H]2C[C@H]1C(=O)NC(C)(C)C [nelfinavir, Nelfinavir]
inhibitory activity against the orthopoxviruses tested (in words) [1]: inactive

Nc1ccn([C@H]2C=C[C@@H](CO)O2)c(=O)n1 [d4C, 2′,3′-dideoxydidehydrocytidine]
inhibitory activity against the orthopoxviruses tested (in words) [1]: No other test compounds of this group (acyclovir, brovavir, lobucavir, didanosine, ddC, or d4C) showed any activity

Nc1c2ncn([C@@H]3O[C@H](CO)[C@@H](O)[C@H]3O)c2nc[n+]1[O-] [ANO, Adenosine N1-oxide]
inhibitory activity against the orthopoxviruses tested (in words) [1]: little activity
inhibition of VAC virus replication in vitro [16]: inhibits VAC virus replication in vitro

Cc1cn([C@H]2C=C[C@@H](CO)O2)c(=O)[nH]c1=O [stavudine]
inhibitory activity against the orthopoxviruses tested (in words) [1]: inactive

Cc1cn([C@H]2C[C@H](N=[N+]=[N-])[C@@H](CO)O2)c(=O)[nH]c1=O [zidovudine]
inhibitory activity against the orthopoxviruses tested (in words) [1]: inactive

O=C1Nc2ccc(Cl)cc2[C@@](C#CC2CC2)(C(F)(F)F)O1 [efavirenz]
inhibitory activity against the orthopoxviruses tested (in words) [1]: inactive

NC(=O)NO [Hydroxyurea, hydroxyurea]
inhibitory activity against the orthopoxviruses tested (in words) [1]: inactive

Nc1ncnc2c1ncn2C[C@@H](CO)OCP(=O)(O)O [HPMPA, (S)-9-(3-hydroxy-2-phosphonylmethoxypropyl)adenine]
IC50 VAR-BSH Vero [2]: 12.6 µg/mL (≈ 41.6 µM)
Therapeutic index (TI) VAR-BSH Vero [2]: 7.9
IC50 VAR-BSH LLC-MK2 [3]: 6.1 µg/mL (≈ 20.1 µM)
Therapeutic index (TI) VAR-BSH LLC-MK2 [3]: 16.4
IC50 VAR-YAM Vero [4]: 11.4 µg/mL (≈ 37.6 µM)
Therapeutic index (TI) VAR-YAM Vero [4]: 8.8
IC50 VAR-YAM LLC-MK2 [5]: 6.8 µg/mL (≈ 22.4 µM)
Therapeutic index (TI) VAR-YAM LLC-MK2 [5]: 14.7
IC50 VAR-GAR Vero [6]: 6.6 µg/mL (≈ 21.8 µM)
Therapeutic index (TI) VAR-GAR Vero [6]: 15.2
IC50 VAR-GAR LLC-MK2 [7]: 4.6 µg/mL (≈ 15.2 µM)
Therapeutic index (TI) VAR-GAR LLC-MK2 [7]: 21.7
IC50 MPX Vero [8]: 10.9 µg/mL (≈ 35.9 µM)
Therapeutic index (TI) MPX Vero [8]: 9.2
IC50 MPX LLC-MK2 [9]: 9.2 µg/mL (≈ 30.3 µM)
Therapeutic index (TI) MPX LLC-MK2 [9]: 10.9
IC50 CPX Vero [10]: 8.4 µg/mL (≈ 27.7 µM)
Therapeutic index (TI) CPX Vero [10]: 11.9
IC50 CPX LLC-MK2 [11]: 7.7 µg/mL (≈ 25.4 µM)
Therapeutic index (TI) CPX LLC-MK2 [11]: 13.0
IC50 VAC Vero [12]: 8.1 µg/mL (≈ 26.7 µM)
Therapeutic index (TI) VAC Vero [12]: 12.3
IC50 VAC LLC-MK2 [13]: 8.0 µg/mL (≈ 26.4 µM)
Therapeutic index (TI) VAC LLC-MK2 [13]: 12.5
TI against the panel of viruses [1]: 11.9
mean IC50 against the panel of viruses [1]: 8.4 ± 0.67 µg/mL
Cytotoxicity TC50 Vero [14]: >100 µg/mL
Cytotoxicity TC50 LLC-MK2 [15]: >100 µg/mL
inhibition of VAC replication in vitro [16]: inhibit VAC replication in vitro
